Results published in ChEMBL document CHEMBL1909046, “DrugMatrix in vitro pharmacology data”.

Tests used:
[1] = biological target: Mitogen-activated protein kinase 1 (Homo sapiens, UniProt P28482); assay: DRUGMATRIX: Protein Serine/Threonine Kinase, ERK2 enzyme inhibition (substrate: Myelin Basic Protein); set-up: species or system Escherichia coli; details: Not Active = under 50% inhibition at 10 µM
Progesterone receptor = biological target: T1, Progesterone receptor (Bos taurus, UniProt Q690N0); assay: DRUGMATRIX: Progesterone radioligand binding (ligand: [3H] R-5020); type: tissue-based, Uterus; details: Not Active = under 50% inhibition at 10 µM
T1 sequence (Q690N0 whole entry): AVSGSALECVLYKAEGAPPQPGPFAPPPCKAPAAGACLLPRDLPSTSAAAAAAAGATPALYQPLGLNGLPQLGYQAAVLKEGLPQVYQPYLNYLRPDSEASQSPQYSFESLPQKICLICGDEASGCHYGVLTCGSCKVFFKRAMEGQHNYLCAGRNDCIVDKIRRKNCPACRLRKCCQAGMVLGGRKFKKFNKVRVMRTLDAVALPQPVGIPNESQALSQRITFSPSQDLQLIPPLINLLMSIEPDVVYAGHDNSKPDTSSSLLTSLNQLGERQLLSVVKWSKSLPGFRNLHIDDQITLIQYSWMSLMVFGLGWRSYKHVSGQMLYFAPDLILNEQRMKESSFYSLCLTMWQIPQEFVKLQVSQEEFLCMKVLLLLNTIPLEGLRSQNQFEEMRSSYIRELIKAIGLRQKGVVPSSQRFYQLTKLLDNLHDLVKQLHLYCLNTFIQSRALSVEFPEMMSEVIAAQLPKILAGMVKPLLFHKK

Cytochrome P450 2A6 = biological target: T2, Cytochrome P450 2A6 (Homo sapiens, UniProt P11509); details: bti-tn-5b1-4; note: in other assays of this panel Not Active means under 50% inhibition at 10 µM
T2 sequence (P11509 whole entry): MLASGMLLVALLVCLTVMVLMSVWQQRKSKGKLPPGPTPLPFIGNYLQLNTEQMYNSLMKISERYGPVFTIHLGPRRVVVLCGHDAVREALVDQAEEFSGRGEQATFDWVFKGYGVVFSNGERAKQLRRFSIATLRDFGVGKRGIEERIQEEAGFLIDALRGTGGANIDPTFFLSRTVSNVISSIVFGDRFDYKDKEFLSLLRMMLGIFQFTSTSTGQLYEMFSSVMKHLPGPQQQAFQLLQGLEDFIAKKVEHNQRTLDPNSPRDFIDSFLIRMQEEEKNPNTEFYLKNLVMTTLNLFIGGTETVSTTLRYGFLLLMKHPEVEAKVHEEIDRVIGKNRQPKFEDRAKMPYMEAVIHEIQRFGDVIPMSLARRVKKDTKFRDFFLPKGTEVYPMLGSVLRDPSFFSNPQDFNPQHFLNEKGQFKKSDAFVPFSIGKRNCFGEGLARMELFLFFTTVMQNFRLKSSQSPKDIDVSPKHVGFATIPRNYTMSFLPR

[2] = biological target: Delta-type opioid receptor (Homo sapiens, UniProt P41143); type: cell membranes, HEK293, Membrane; details: hek293; note: in other assays of this panel Not Active means under 50% inhibition at 10 µM
Chain of Delta-type opioid receptor (P41143 whole entry): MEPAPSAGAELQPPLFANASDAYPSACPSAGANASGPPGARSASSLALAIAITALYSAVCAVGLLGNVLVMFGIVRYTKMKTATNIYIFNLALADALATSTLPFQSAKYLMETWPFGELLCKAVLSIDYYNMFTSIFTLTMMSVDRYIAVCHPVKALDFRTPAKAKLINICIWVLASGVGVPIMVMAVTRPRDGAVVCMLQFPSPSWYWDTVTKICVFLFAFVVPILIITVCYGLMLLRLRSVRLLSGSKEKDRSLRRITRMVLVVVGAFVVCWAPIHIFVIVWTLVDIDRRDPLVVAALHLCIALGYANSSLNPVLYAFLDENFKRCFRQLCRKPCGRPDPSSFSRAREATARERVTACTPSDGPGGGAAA

[3] = DRUGMATRIX: GABAA, Flunitrazepam, Central radioligand binding (ligand: [3H] Flunitrazepam); type: cell membranes, Rattus norvegicus, Wistar, Brain, Membrane; details: Not Active = under 50% inhibition at 10 µM
[4] = DRUGMATRIX: Imidazoline I2, Central radioligand binding (ligand: [3H] Idazoxan); type: cell membranes, Rattus norvegicus, Wistar, Cerebral cortex, Membrane; details: Not Active = under 50% inhibition at 10 µM

Chain of Mitogen-activated protein kinase 1 (P28482 whole entry): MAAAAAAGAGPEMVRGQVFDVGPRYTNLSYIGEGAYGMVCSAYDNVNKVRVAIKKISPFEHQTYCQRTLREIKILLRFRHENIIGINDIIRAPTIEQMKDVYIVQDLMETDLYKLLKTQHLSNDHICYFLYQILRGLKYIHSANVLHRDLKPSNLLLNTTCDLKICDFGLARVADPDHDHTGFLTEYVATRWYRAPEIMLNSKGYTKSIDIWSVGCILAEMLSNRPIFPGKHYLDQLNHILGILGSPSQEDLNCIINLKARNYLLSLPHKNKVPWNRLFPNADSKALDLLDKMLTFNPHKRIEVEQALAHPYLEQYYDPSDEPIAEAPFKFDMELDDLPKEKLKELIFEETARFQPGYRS

COBALT(II) ACETYLACETONATE
Not Active: IC50 [1] | Ki [1] | IC50 (Progesterone receptor) | Ki (Progesterone receptor) | IC50 (Cytochrome P450 2A6) | Ki (Cytochrome P450 2A6) | IC50 [2] | Ki [2] | IC50 [3] | Ki [3] | IC50 [4] | Ki [4]

INSULIN HUMAN
Not Active: IC50 [1] | Ki [1] | IC50 (Progesterone receptor) | Ki (Progesterone receptor) | IC50 (Cytochrome P450 2A6) | Ki (Cytochrome P450 2A6) | IC50 [2] | Ki [2] | IC50 [3] | Ki [3] | IC50 [4] | Ki [4]

POLYVINYL ALCOHOL
Not Active: IC50 [1] | Ki [1] | IC50 (Progesterone receptor) | Ki (Progesterone receptor) | IC50 (Cytochrome P450 2A6) | Ki (Cytochrome P450 2A6) | IC50 [2] | Ki [2] | IC50 [3] | Ki [3] | IC50 [4] | Ki [4]
